Laboratory results taken from US12540118B2, “Dendrene amide compound, bactericide and use thereof” (Jiangsu Flag Chemical Industry Co., Ltd., priority 2020, dated 2026).
Read-outs that look alike come from different tables or passages of the source.

Legend:
Fusarium fujikura [1] = test: Protective activity against rice bakanae disease; assay type: in vivo; details: 5 μg/mL, solvent DMSO
Excerpt: (§1) Test of protective activity and therapeutic activity of Compound 1 against rice bakanae disease.
(§2) The test and investigation method refers to SOP-SC-1112 rice bakanae disease potting method in disinfectant rolls written by KANGZHUO and GUBAOGEN in “Standard operation specification for testing biological activity of pesticides”.
(§3) The phenamacril is a mainstream medicament for preventing and treating the rice bakanae disease at present, resistant strains are more and more along with long-time use, and […] strains showing sensitivity and one strain showing resistance to the […] are selected as test strains.
(§4) Four Fusarium fujikura SX18-32, SX18-50, SX18-59 and SX18-63 are selected for testing strains, and the current mainstream commercial bactericide phenamacril is selected as a positive control. Wherein SX18-32, SX18-50 and SX18-59 show sensitivity to phenamacril and SX18-63 show resistance to phenamacril.

Fusarium fujikura [2] = test: Therapeutic activity against rice bakanae disease; assay type: in vivo; details: 5 μg/mL, solvent DMSO
Excerpt: as §1, §2, §3, §4

Erysiphe graminis = Erysiphe graminis potting method; assay type: in vivo; details: for pest or weed control at 100 µg/mL: Blumeria graminis, read-out: Erysiphe graminis control rating
Method: The fungicidal activity of the control agents and target compounds are determined. The test and investigation method refers to SOP-SC-1116 Erysiphe graminis potting method in disinfectant rolls written by KANGZHUO and GUBAOGEN in “Standard operation specification for testing biological activity of pesticides”.

[3] = system: Fusarium wilt of water melon; test: Mycelial growth rate method; assay type: cell-based
Rhizoctonia cerealis = test: Mycelial growth rate method; assay type: cell-based
Sphaerotheca fuliginea [4] = test: Sphaerotheca fuliginea potting method; assay type: in vivo; details: 100 mg/L; for pest or weed control at 100 µg/mL: Podosphaera fuliginea, read-out: Sphaerotheca fuliginea control rating
Method: The fungicidal activity of the control agents and target compounds are determined. The test and investigation method refers to SOP-SC-1101 sphaerotheca fuliginea potting method in disinfectant rolls written by KANGZHUO and GUBAOGEN in “Standard operation specification for testing biological activity of pesticides”.

Sclerotinia sclerotiorum = test: Mycelial growth rate method; assay type: cell-based
Corn big spot = test: Mycelial growth rate method; assay type: cell-based
Alternaria solani = test: Mycelial growth rate method; assay type: cell-based
Phytophthora infestans = assay type: cell-based
Sphaerotheca fuliginea [5] = test: Field test of sphaerotheca fuliginea; assay type: in vivo; details: 100 mg/L
Method: The test is carried out according to GB/T17980.30-2000 of pesticide field efficacy test guidelines. The survey method is to randomly take four points for each cell and survey all leaves of 2 plants per point. And investigating the sphaerotheca fuliginea incidence before the first application, and investigating the sphaerotheca fuliginea incidence 7 and 14 days after the second application respectively, and calculating the disease index and the controlling effect.

Phytophthora capsici = test: Mycelial growth rate method; assay type: cell-based
Gibberella zeae = assay type: cell-based
Alternaria alternata = test: Mycelial growth rate method; assay type: cell-based
succinate dehydrogenase = target: T1, succinate dehydrogenase (Sus scrofa, UniProt A5GZW8+D0VWV4+Q007T0); test: Enzyme activity assay, succinate dehydrogenase (DCIP reduction); assay type: biochemical, porcine; details: read-out: Inhibitors (10 μM, SQR)
T1 construct: isolated from porcine hearts; from tissue; host or cells: porcine heart
Outline: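 Porcine heart succinate dehydrogenase (2 nM) in 100 mM sodium phosphate pH 7.4, 0.3 mM EDTA, 20 mM sodium succinate and 53 μM DCIP at 23° C with stirring. DCIP reduction followed at 600 nm (ε 21 mM^−1 cm^−1); linear slope minus baseline gives initial rate.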

T1 sequence (Q0QF01 43-664 partner): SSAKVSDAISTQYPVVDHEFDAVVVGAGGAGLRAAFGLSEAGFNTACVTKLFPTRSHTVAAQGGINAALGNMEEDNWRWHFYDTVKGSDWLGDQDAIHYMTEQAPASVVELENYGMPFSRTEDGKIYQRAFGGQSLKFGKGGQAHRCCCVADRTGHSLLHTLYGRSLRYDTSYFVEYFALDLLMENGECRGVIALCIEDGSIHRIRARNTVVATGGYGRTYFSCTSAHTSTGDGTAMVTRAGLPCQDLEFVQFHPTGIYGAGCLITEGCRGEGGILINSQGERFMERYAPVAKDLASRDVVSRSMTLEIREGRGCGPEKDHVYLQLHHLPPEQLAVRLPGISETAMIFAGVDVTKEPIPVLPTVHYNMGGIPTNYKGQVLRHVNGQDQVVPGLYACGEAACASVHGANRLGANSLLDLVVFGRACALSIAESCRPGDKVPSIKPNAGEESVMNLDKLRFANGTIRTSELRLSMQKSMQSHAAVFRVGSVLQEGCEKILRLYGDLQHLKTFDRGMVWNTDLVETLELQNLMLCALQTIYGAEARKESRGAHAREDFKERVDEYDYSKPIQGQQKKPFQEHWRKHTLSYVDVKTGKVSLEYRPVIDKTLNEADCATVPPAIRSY
T1 sequence (Q007T0 29-280): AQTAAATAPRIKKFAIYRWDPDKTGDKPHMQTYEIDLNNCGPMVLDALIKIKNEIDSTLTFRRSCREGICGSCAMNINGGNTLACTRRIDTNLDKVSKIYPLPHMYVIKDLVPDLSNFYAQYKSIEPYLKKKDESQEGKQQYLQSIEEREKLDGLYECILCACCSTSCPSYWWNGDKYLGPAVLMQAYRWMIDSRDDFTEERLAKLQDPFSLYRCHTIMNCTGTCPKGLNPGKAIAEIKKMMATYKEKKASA
T1 sequence (D0VWV4 30-169): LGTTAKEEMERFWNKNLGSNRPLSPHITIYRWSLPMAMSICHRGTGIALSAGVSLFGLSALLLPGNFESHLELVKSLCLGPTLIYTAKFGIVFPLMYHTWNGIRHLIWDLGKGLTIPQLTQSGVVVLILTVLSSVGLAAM
T1 sequence (A5GZW8 57-159 limits assumed): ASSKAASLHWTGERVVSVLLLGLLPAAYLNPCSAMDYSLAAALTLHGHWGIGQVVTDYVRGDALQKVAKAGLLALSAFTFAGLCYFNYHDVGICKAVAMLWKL

CCOC(=O)C(C#N)=C(N)c1ccccc1 [Phenamacril, reference compound]
Protective activity (Fusarium fujikura [1]; strain SX18-32 (S)): 83.6% | Protective activity (Fusarium fujikura [1]; strain SX18-59 (S)): 58.8% | Protective activity (Fusarium fujikura [1]; strain SX18-63 (R)): 19.6% | Therapeutic activity (Fusarium fujikura [2]; strain SX18-32 (S)): 23.8% | Therapeutic activity (Fusarium fujikura [2]; strain SX18-59 (S)): 50.0% | Therapeutic activity (Fusarium fujikura [2]; strain SX18-59 (S), listed as phenamacril): about 50% | Therapeutic activity (Fusarium fujikura [2]; strain SX18-63 (R)): 0% | Therapeutic activity (Fusarium fujikura [2]; strain SX18-63 (R), listed as phenamacril): almost no therapeutic activity

CON(C(=O)c1cn(C)nc1C(F)F)C(C)Cc1c(Cl)cc(Cl)cc1Cl (stereo not shown) [Pydiflumetofen, reference compound]
Erysiphe graminis control rating (Erysiphe graminis; 6.25 mg/L): A (80% ≤ A ≤ 100%) | Erysiphe graminis control rating (Erysiphe graminis; 25 mg/L): A (80% ≤ A ≤ 100%) | Erysiphe graminis control rating (Erysiphe graminis; 100 mg/L): A (80% ≤ A ≤ 100%) | Inhibition ratio (%) Fusarium wilt of water melon ([3]; 1.5625 μg/mL): A (80% ≤ A ≤ 100%) | Inhibition ratio (%) Fusarium wilt of water melon ([3]; 6.25 μg/mL): A (80% ≤ A ≤ 100%) | Inhibition ratio (%) Fusarium wilt of water melon ([3]; 25 μg/mL): A (80% ≤ A ≤ 100%) | Inhibition ratio (%) Rhizoctonia cerealis (Rhizoctonia cerealis; 1.5625 μg/mL): A (80% ≤ A ≤ 100%) | Inhibition ratio (%) Rhizoctonia cerealis (Rhizoctonia cerealis; 6.25 μg/mL): A (80% ≤ A ≤ 100%) | Inhibition ratio (%) Rhizoctonia cerealis (Rhizoctonia cerealis; 25 μg/mL): A (80% ≤ A ≤ 100%) | Sphaerotheca fuliginea control rating (Sphaerotheca fuliginea [4]): A (80% ≤ A ≤ 100%) | Inhibition ratio (%) Sclerotinia sclerotiorum (Sclerotinia sclerotiorum; 1.5625 μg/mL): C (C <70%) | Inhibition ratio (%) Sclerotinia sclerotiorum (Sclerotinia sclerotiorum; 6.25 μg/mL): A (80% ≤ A ≤ 100%) | Inhibition ratio (%) Sclerotinia sclerotiorum (Sclerotinia sclerotiorum; 25 μg/mL): A (80% ≤ A ≤ 100%) | Inhibition ratio (%) Corn big spot (Corn big spot; 1.5625 μg/mL): A (80% ≤ A ≤ 100%) | Inhibition ratio (%) Corn big spot (Corn big spot; 6.25 μg/mL): A (80% ≤ A ≤ 100%) | Inhibition ratio (%) Corn big spot (Corn big spot; 25 μg/mL): A (80% ≤ A ≤ 100%) | Inhibition ratio (%) Alternaria solani (Alternaria solani; 1.5625 μg/mL): A (80% ≤ A ≤ 100%) | Inhibition ratio (%) Alternaria solani (Alternaria solani; 6.25 μg/mL): A (80% ≤ A ≤ 100%) | Inhibition ratio (%) Alternaria solani (Alternaria solani; 25 μg/mL): A (80% ≤ A ≤ 100%) | Inhibition ratio (%) Phytophthora infestans (Phytophthora infestans; 1.5625 μg/mL): A (80% ≤ A ≤ 100%) | Inhibition ratio (%) Phytophthora infestans (Phytophthora infestans; 6.25 μg/mL): A (80% ≤ A ≤ 100%) | Inhibition ratio (%) Phytophthora infestans (Phytophthora infestans; 25 μg/mL): A (80% ≤ A ≤ 100%) | Controlling effect % (Sphaerotheca fuliginea [5]): 92% | Inhibition ratio (%) Phytophthora capsici (Phytophthora capsici; 1.5625 μg/mL): B (70% ≤ B < 80%) | Inhibition ratio (%) Phytophthora capsici (Phytophthora capsici; 6.25 μg/mL): A (80% ≤ A ≤ 100%) | Inhibition ratio (%) Phytophthora capsici (Phytophthora capsici; 25 μg/mL): A (80% ≤ A ≤ 100%) | Inhibition ratio (%) Gibberella zeae (Gibberella zeae; 1.5625 μg/mL): A (80% ≤ A ≤ 100%) | Inhibition ratio (%) Gibberella zeae (Gibberella zeae; 6.25 μg/mL): A (80% ≤ A ≤ 100%) | Inhibition ratio (%) Gibberella zeae (Gibberella zeae; 25 μg/mL): A (80% ≤ A ≤ 100%) | Inhibition ratio (%) Alternaria alternata (Alternaria alternata; 1.5625 μg/mL): A (80% ≤ A ≤ 100%) | Inhibition ratio (%) Alternaria alternata (Alternaria alternata; 6.25 μg/mL): A (80% ≤ A ≤ 100%) | Inhibition ratio (%) Alternaria alternata (Alternaria alternata; 25 μg/mL): A (80% ≤ A ≤ 100%)

Cc1cccc(C(CN(C(=O)c2c(C(F)F)nn(C)c2F)C2CC2)=C(Cl)Cl)c1 [Compound 139]
pest or weed control at 100 µg/mL (Erysiphe graminis; 100 mg/L): 80 to 100% | pest or weed control at 100 µg/mL (Sphaerotheca fuliginea [4]): 80 to 100% | inhibition at 10 µM (succinate dehydrogenase): > 90%

C=C(c1ccc(S(C)(=O)=O)cc1Cl)C(C)N(C(=O)c1c(C(F)F)nn(C)c1F)C1CC1 (stereo not shown) [Compound 103]
pest or weed control at 100 µg/mL (Erysiphe graminis; 100 mg/L): 80 to 100% | pest or weed control at 100 µg/mL (Sphaerotheca fuliginea [4]): 80 to 100% | inhibition at 10 µM (succinate dehydrogenase): > 90%

C=C(c1ccccc1C)C(C)N(C(=O)c1c(C(F)F)nn(C)c1F)C1CC1 (stereo not shown) [Compound 87]
pest or weed control at 100 µg/mL (Erysiphe graminis; 100 mg/L): 80 to 100% | pest or weed control at 100 µg/mL (Sphaerotheca fuliginea [4]): 80 to 100% | inhibition at 10 µM (succinate dehydrogenase): > 90%
